The text below walks through data of ChEMBL document CHEMBL5543137, “Design and Synthesis of Novel Ultralong-Acting Peptides as EDP-EBP Interaction Inhibitors for Pulmonary Fibrosis Treatment” (J Med Chem, 2024).

Structures are written as SMILES. Activity calls are given as the source filed them. The rule behind the calls is not given here. Starred links: 1 amine or outer side, 2 acyl side, 3 side chain; linkers in the order of their positions; H or OH if unused. Non-standard residues stand in square brackets, D forms with d. Residues, ends and D or L forms follow the SMILES beside them. *: point of attachment. C20 diacid = O=C(O)CCCCCCCCCCCCCCCCCCC(=O)*; γGlu = O=C(O)[C@H](CCC(=O)[*:2])N[*:1]; Iva = CC[C@](C)(N)C(=O)O; PEG2 = NCCOCCOCCC(=O)O

The term Tmax denotes the time at which the peak concentration occurs.

Series [1] deals with Mus musculus. Kind of series: Antifibrotic activity against BLM-induced C57BL/6 mouse pulmonary fibrosis model assessed as reduction in FN expression at 240 ug/kg/day, sc administered for 2 weeks starting from 7 days post BLM induction and measured after 21 days post BLM induction in presence of GM6001. It is filed as functional, organism-based. The note with it: dose 240.0 µg/kg/day.

The subject of series [2] is Mus musculus. Kind of series: Antifibrotic activity against BLM-induced C57BL/6 mouse pulmonary fibrosis model assessed as increase in MMP-12 expression at 240 ug/kg/day, sc administered for 2 weeks starting from 7 days post BLM induction and measured after 21 days post BLM induction. In kind it is functional, organism-based. Particulars: dose 240.0 µg/kg/day.
The nature of series [3]: Tmax in Sprague-Dawley rat serum at 0.04 mg/kg, sc administered as single dose measured upto 10 days by LC-MS/MS method. The note with it: time < 10 day. In kind it is ADME, organism-based.
For series [4], the system named is Mus musculus. Kind of series: Antifibrotic activity against BLM-induced C57BL/6 mouse pulmonary fibrosis model assessed as reduction in lung alpha-SMA expression at 240 ug/kg/day, sc administered for 2 weeks starting from 7 days post BLM induction and measured after 21 days post BLM induction by Western blotting analysis. Particulars: dose 240.0 µg/kg/day. It is filed as functional, organism-based.

Series [5] relates to Mus musculus. Kind of series: Antifibrotic activity against BLM-induced C57BL/6 mouse pulmonary fibrosis model assessed as reduction in lung inflammation at 150 ug/kg, sc administered for 2 weeks starting from 7 days post BLM induction and measured after 21 days post BLM induction by immunohistochemical staining based assay. It is filed as functional, organism-based. The note with it: dose 150.0 µg/kg.

Series [6] relates to Mus musculus. Kind of series: Antifibrotic activity against BLM-induced C57BL/6 mouse pulmonary fibrosis model assessed as reduction in lung Fn expression at 240 ug/kg/day, sc administered for 2 weeks starting from 7 days post BLM induction and measured after 21 days post BLM induction by Western blotting analysis. In kind it is functional, organism-based. The note with it: dose 240.0 µg/kg/day.

A further series concerns A549. Kind of series: Antifibrotic activity against TNFalpha-induced human A549 cells assessed as downregulation of Fn expression level at 10 uM incubated for 24 hrs by Western blotting analysis. In kind it is functional, cell-based. In general terms: In western blotting, separated proteins are transferred to a membrane and probed.
Series [7] concerns Mus musculus. Kind of series: Antifibrotic activity against BLM-induced C57BL/6 mouse pulmonary fibrosis model assessed as reduction in Col3a1 gene expression at 240 ug/kg/day, sc administered for 2 weeks starting from 7 days post BLM induction and measured after 21 days post BLM induction by ScRNA-sequencing analysis. It is filed as functional, organism-based. The note with it: dose 240.0 µg/kg/day.

As to `CC[C@](C)(NC(=O)[C@@H](NC(=O)CCOCCOCCNC(=O)CCOCCOCCNC(=O)CC[C@H](NC(=O)CCCCCCCCCCCCCCCCCCC(=O)O)C(=O)O)C(C)C)C(=O)NCC(=O)N[C@@H](CO)C(=O)N1CCC[C@H]1C(=O)N[C@@H](CO)C(=O)N[C@@H](C)C(=O)N[C@@H](CCC(N)=O)C(=O)N[C@@H](CCC(=O)O)C(=O)N[C@@H](CCC(=O)O)C(=O)N[C@@H](C)C(=O)N[C@@H](CO)C(=O)N1CCC[C@H]1C(=O)N[C@@H](C)C(N)=O` ({C20 diacid-γGlu-PEG2-PEG2}-V[Iva]GSPSAQEEASPA-NH2), the outcome with Mus musculus [1] was inactive. In addition, the result in the series with Mus musculus [2], in the series with Mus musculus [4], in the series on Mus musculus [5], with Mus musculus [6], in the series with A549 and in the series with Mus musculus [7] was Active. For the same molecule, the Tmax in series [3] is 24 h.
